System: A. thaliana seedlings
Assay: Growth and development response of A. thaliana seedlings grown in liquid medium with anticancer drug or hot-water extract
Format: in vivo, Arabidopsis thaliana
Conditions: for generation of lateral roots: anticancer drug treatment; for hypocotyl length growth depending on concentration: statistical computing, FIG. 11
Method: The Columbia seeds collected from wild-type A. thaliana plants were sterilized and then kept in a dark place at 4° C. for 3 days to enhance germination rate thereof. The wild-type A. thaliana seeds sown on an MS solid medium containing agar were germinated at 22° C. and on the long day condition of 16 hours the day/8 hours night and allowed to grow the A. thaliana seedlings for three days.
The undiluted extract of traditional herbal medicinal material described above was diluted at the ratios of 0.5×, 0.25× and 0.05×, and the MS liquid medium of 1 ml was mixed well with distilled water to make a total volume of 2 ml. in a 12-well cell culture plate. About ten A. thaliana seedlings were planted in each well and the plates were put on a shaker to cultivate them at 100 rpm for three days. Growth and development of the arabidopsis seedlings was analyzed after three days. Each test was carried out in 3 replicates.
The analysis of A. thaliana seedling response to anticancer drugs was made in the same manner, except that the anticancer drugs were applied instead of the traditional herbal medicinal material extract.
Root length, the number of lateral roots and hypocotyl length of the A. thaliana seedlings were measured in order to find the difference in developmental biology shown by the response of A. thaliana seedlings to the anticancer drugs and the extract. The ImageJ software (see rsb.info.nih.gov/ij/) was used to measure the respective lengths in images of the photograph file.
Crude extracts were made with the traditional herbal medicinal materials of each prescription and medicinal material components thereof, respectively, and the ⅕-fold-diluted solution was used as a first effective concentration. The solution was produced by adding 0.4 ml of the crude extract to 1 ml of the 0.5× MS medium and 0.6 ml of water.
For making more quantitative analysis of the reaction to respective traditional herbal medicinal materials, the number of lateral roots were measured for 12 or more A. thaliana seeedlings in each treatment group. […]

[1] = vs DMSO-treated control seedlings, FIG. 8

Structure (SMILES)	generation of lateral roots at low concentration (0.05 uM)	generation of lateral roots (FIG. 8)	hypocotyl length growth depending on concentration	root morphology (2 uM, three days after treatment, vs water-treated control roots, FIG. 9)	number of lateral roots generated (treated or not with taxol, FIG. 8)	hypocotyl growth [1]	root growth [1]	trichome morphology (branches) (vs control group, FIG. 10)
CC[C@@]1(O)C(=O)OCc2c1cc1n(c2=O)Cc2cc3ccccc3nc2-1 [camptothecin]	inhibited generation of lateral roots	markedly inhibited	inhibited in a significant level					
CC(=O)O[C@H]1C(=O)[C@@]2(C)[C@H]([C@H](OC(=O)c3ccccc3)[C@]3(O)C[C@H](OC(=O)[C@H](O)[C@@H](NC(=O)c4ccccc4)c4ccccc4)C(C)=C1C3(C)C)[C@]1(OC(C)=O)CO[C@@H]1C[C@@H]2O [taxol, Paclitaxel]		not significantly affected	inhibited in a significant level	dense root hairs and opaque epidermal cells	Approximately five	inhibited in proportion to the concentrations	inhibited in proportion to the concentrations	changed from the three-branch type to the one-branch type

— US20170218445A1, “DRUG DISCOVERY METHODS USING PLANT DEVELOPMENTAL BIOLOGY” (SEOUL NATIONAL UNIVERSITY R&DB FOUNDATION, priority 2014, published 2017)
